Laboratory results as given in publication PMC5831858, “Pharmacological characterisation of CR6086, a potent prostaglandin E2 receptor 4 antagonist, as a new potential disease-modifying anti-rheumatic drug” (Arthritis Research & Therapy, 2018).
Marks after values point to notes of the source that are not given here.

Assays:
[1] = tested on: IL-17 release; test: IL-17 release from human Th17 cells; type: cell-based; conditions: Homo sapiens; at 1 μM; 48 and 72 h
Method: PBMCs were purified using Histopaque. CD4^+CD45^+ naive T cells were indirectly selected in a magnetic field (MACS; Miltenyi Biotec). Purified CD4^+ cells were subsequently cultured for 7 days in differentiation medium (RPMI 1640 + FBS 10%, IL-6 30 ng/ml, transforming growth factor [TGF]-β 2.25 ng/ml, IL-23 30 ng/ml, IL-1β 20 ng/ml, anti-interferon (IFN)-γ 1 ng/ml and anti-IL-4 2.5 ng/ml). Th17 cell expansion was stimulated by addition of anti-CD3/[…]anti-CD28 beads to the medium with a cell-to-beads ratio of 1:2. Th17 cells were stimulated with IL-6 30 ng/ml, TGF-β 2.25 ng/ml, IL-23 30 ng/ml, IL-1β 20 ng/ml and PGE2 10 nM for 48 h in the presence of CR6086 (0.03–10 μM) or naproxen (1–10 μM). IL-17 release was measured by ELISA (Abcam, Cambridge, UK).

[2] = tested on: arthritic mice (collagen-induced arthritis model); test: CIA in mice, third study (CR6086, MTX, combination): clinical score, oedema, histology; type: in vivo, mouse; conditions: for CLINICAL SCORE (interquartile range): 30 mg/kg CR6086, median (IQR)
[3] = molecular target: T1, EP1 (Homo sapiens, UniProt P34995); test: Eicosanoid receptor EP1 binding; conditions: [^3H]PGE2, HEK-293 cells, read-out: CR6086 Activity at 10µM
T1 construct: host or cells: HEK-293 cells

[4] = molecular target: T2, EP3 (Homo sapiens, UniProt P43115); test: Eicosanoid receptor EP3 binding; conditions: [^3H]PGE2, HEK-293 cells, read-out: CR6086 Activity at 10µM
T2 construct: host or cells: HEK-293 cells

[5] = molecular target: TP (TXA2/PGH2) (Homo sapiens, UniProt P21731); test: Eicosanoid receptor TP binding; conditions: [^3H]SQ 29548, HEK-293 cells, read-out: CR6086 Activity at 10µM
[6] = molecular target: A1 (Homo sapiens, UniProt P30542); test: Adenosine receptor A1 binding; conditions: [^3H]DPCPX, Human recombinant CHO cells, read-out: CR6086 Activity at 10µM
[7] = molecular target: β1 (Homo sapiens, UniProt P08588); test: Adrenergic receptor β1 binding; conditions: [^3H](-)CGP 12177, Human recombinant HEK-293 cells, read-out: CR6086 Activity at 10µM
[8] = molecular target: β2 (Homo sapiens, UniProt P07550); test: Adrenergic receptor β2 binding; conditions: [^3H](-)CGP 12177, Human recombinant CHO cells, read-out: CR6086 Activity at 10µM
[9] = molecular target: D2S (Homo sapiens, UniProt P14416); test: Dopamine receptor D2S binding; conditions: [^3H]methyl-spiperone, Human recombinant HEK-293 cells, read-out: CR6086 Activity at 10µM
[10] = molecular target: D3 (Homo sapiens, UniProt P35462); test: Dopamine receptor D3 binding; conditions: [^3H]methyl-spiperone, Human recombinant CHO cells, read-out: CR6086 Activity at 10µM
[11] = molecular target: D4,4 (Homo sapiens, UniProt P21917); test: Dopamine receptor D4,4 binding; conditions: [^3H]methyl-spiperone, Human recombinant CHO cells, read-out: CR6086 Activity at 10µM
[12] = molecular target: H2 (Homo sapiens, UniProt P25021); test: Histamine receptor H2 binding; conditions: [^125I]APT, Human recombinant CHO cells, read-out: CR6086 Activity at 10µM
[13] = molecular target: NK3 (Homo sapiens, UniProt P29371); test: Neurokinin receptor NK3 binding; conditions: [^3H]SR 142801, Human recombinant CHO cells, read-out: CR6086 Activity at 10µM
[14] = molecular target: Y2 (Homo sapiens, UniProt P49146); test: Neuropeptide Y receptor Y2 binding; conditions: [^125I]peptide YY, KAN-TS cells, read-out: CR6086 Activity at 10µM
[15] = molecular target: δ2 (DOP) (Homo sapiens, UniProt P41143); test: Opioid receptor δ2 (DOP) binding; conditions: [^3H]DADLE, Human recombinant CHO cells, read-out: CR6086 Activity at 10µM
[16] = molecular target: NTS1 (NT1) (Homo sapiens, UniProt P30989); test: NTS1 receptor binding; conditions: [^125I]Tyr^3-neurotensin, Human recombinant CHO cells, read-out: CR6086 Activity at 10µM
[17] = molecular target: PAC1 (PACAP) (Homo sapiens, UniProt P41586); test: PAC1 receptor binding; conditions: [^125I]PACAP1-27, Human recombinant CHO cells, read-out: CR6086 Activity at 10µM
[18] = molecular target: GR (Homo sapiens, UniProt P04150); test: Nuclear receptor GR binding; conditions: [^3H]dexamethasone, IM-9 cells (cytosol), read-out: CR6086 Activity at 10µM
[19] = tested on: Ca2+ channel (L, verapamil site); test: Ion channel Ca2+ (L, verapamil site) binding; conditions: up to 100µM (cell); [^3H]verapamil [^3H]D888; Rat cerebral cortex
[20] = tested on: Kv channel; test: Ion channel Kv binding; conditions: [^125I]α-dendrotoxin, Rat cerebral cortex

NTS1 (NT1), sequence (P30989 whole entry): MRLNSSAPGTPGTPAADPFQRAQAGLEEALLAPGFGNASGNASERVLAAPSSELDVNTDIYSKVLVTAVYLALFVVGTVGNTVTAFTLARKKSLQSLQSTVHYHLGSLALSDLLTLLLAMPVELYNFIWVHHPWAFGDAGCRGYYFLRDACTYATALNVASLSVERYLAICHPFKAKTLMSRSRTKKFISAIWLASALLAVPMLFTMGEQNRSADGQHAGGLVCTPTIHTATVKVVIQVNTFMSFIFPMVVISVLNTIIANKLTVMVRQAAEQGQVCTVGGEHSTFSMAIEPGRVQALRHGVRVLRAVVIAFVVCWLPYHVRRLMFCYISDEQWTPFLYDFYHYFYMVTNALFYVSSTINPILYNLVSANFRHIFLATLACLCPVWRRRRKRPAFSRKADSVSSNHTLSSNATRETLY
TP (TXA2/PGH2), sequence (P21731 whole entry): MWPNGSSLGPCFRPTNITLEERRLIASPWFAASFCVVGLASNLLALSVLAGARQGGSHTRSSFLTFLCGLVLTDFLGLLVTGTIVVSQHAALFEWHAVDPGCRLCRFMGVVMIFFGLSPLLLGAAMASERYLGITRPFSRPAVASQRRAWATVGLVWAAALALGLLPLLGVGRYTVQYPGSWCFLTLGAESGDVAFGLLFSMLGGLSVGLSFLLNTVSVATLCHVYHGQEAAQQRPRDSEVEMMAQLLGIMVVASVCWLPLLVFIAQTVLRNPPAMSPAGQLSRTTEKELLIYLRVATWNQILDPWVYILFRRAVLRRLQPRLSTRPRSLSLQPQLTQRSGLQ
Y2, sequence (P49146 whole entry): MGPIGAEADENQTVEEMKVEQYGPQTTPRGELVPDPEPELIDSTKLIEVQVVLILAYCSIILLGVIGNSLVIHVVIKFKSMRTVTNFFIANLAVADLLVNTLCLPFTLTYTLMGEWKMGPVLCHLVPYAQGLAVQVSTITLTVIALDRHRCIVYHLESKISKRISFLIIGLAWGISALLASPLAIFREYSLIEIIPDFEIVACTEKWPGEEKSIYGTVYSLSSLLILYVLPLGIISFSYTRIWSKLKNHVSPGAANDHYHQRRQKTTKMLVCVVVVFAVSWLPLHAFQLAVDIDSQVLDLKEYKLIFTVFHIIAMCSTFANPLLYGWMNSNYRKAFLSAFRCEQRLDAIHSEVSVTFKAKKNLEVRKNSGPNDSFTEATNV
GR, sequence (P04150 whole entry): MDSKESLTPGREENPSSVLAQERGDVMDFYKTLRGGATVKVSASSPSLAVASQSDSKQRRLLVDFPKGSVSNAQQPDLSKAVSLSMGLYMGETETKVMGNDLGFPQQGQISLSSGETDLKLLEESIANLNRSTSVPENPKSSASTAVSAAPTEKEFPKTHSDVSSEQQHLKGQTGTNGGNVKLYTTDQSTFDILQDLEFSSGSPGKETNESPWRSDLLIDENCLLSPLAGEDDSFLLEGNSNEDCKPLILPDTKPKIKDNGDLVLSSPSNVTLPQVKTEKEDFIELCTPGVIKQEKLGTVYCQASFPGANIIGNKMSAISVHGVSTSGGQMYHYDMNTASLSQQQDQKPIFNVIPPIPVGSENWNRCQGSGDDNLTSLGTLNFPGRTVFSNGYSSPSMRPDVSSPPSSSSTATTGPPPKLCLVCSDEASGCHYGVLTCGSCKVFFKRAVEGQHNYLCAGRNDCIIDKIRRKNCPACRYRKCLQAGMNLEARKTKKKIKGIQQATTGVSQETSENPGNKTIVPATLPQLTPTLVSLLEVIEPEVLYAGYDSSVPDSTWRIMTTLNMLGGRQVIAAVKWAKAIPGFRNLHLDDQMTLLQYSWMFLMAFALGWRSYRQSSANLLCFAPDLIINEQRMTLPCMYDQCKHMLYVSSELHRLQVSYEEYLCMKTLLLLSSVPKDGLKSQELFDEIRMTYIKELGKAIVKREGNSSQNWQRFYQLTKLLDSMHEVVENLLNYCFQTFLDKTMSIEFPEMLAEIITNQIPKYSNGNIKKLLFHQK
PAC1 (PACAP), sequence (P41586 21-468): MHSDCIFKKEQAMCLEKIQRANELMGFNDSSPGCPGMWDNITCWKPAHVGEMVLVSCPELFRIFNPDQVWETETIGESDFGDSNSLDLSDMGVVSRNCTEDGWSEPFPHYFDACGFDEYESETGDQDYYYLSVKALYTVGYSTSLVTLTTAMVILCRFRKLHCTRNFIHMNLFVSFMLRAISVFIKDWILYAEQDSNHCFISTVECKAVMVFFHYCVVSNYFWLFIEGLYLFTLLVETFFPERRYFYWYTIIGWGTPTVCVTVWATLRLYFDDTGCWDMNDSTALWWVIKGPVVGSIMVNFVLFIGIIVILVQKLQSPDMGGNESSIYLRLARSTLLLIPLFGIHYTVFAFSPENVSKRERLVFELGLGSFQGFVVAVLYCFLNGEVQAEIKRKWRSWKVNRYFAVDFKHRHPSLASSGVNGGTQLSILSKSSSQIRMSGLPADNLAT
A1, sequence (P30542 whole entry): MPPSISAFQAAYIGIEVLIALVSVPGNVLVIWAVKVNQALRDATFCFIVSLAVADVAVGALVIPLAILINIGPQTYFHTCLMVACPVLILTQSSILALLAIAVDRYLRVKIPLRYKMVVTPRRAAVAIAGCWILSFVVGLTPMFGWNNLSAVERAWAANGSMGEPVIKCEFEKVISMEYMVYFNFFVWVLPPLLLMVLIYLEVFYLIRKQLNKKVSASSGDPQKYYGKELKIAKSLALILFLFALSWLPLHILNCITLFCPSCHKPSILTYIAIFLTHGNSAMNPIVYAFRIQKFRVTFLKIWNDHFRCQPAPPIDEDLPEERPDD
T1 sequence (P34995 whole entry): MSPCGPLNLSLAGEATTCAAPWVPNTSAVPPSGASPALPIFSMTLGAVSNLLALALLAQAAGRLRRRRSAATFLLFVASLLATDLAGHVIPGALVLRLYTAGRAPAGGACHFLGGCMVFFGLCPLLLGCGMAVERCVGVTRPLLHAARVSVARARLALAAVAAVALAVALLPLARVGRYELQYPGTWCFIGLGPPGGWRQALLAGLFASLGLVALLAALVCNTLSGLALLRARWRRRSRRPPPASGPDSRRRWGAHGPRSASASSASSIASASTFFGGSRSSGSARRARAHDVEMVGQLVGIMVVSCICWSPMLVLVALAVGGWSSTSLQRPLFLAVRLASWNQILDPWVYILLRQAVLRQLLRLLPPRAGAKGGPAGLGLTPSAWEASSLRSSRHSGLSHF
NK3, sequence (P29371 whole entry): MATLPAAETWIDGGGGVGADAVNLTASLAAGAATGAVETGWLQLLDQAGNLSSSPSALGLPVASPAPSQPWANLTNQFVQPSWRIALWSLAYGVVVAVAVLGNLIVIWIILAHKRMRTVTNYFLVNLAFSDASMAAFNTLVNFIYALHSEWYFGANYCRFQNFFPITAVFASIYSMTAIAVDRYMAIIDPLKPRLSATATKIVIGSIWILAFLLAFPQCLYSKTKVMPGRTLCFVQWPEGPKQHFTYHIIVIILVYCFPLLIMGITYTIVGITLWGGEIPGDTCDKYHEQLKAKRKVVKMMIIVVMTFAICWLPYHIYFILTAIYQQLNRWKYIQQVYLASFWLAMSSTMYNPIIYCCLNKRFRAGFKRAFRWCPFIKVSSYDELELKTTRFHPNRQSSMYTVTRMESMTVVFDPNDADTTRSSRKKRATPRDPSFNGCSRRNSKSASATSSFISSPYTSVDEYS
β1, sequence (P08588 whole entry): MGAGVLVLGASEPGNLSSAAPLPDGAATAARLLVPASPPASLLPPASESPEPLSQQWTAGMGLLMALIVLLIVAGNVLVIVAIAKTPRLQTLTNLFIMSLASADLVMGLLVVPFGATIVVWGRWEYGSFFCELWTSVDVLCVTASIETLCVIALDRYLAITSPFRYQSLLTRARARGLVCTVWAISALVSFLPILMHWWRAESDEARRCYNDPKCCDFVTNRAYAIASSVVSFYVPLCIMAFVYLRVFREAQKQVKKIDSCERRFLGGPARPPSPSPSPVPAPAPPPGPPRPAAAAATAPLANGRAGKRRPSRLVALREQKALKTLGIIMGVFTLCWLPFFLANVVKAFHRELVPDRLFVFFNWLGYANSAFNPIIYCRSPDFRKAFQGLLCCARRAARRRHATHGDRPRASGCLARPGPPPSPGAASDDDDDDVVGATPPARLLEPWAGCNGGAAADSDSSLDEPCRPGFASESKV
T2 sequence (P43115 whole entry): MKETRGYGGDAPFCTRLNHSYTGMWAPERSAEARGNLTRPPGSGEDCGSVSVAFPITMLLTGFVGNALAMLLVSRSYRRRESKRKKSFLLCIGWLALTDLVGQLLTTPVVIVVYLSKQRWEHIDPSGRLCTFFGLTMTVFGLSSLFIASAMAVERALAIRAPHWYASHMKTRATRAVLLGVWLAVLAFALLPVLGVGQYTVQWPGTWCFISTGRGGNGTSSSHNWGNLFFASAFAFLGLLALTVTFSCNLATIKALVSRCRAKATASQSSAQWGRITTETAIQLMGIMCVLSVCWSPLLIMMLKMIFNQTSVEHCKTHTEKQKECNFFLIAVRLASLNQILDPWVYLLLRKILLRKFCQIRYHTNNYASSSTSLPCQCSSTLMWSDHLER
D4,4, sequence (P21917 whole entry): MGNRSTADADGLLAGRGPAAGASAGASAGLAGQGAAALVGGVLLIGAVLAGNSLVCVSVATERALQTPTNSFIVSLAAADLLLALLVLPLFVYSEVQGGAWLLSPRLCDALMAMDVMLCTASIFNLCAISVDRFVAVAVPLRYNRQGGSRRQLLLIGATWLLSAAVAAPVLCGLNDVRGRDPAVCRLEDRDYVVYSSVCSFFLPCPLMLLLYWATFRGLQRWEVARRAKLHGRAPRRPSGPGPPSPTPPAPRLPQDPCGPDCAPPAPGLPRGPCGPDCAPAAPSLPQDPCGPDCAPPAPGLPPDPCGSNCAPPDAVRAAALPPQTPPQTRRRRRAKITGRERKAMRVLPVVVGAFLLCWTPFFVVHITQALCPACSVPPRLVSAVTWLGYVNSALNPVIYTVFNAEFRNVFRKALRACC

## O=C([O-])c1ccc(C2(NC(=O)[C@H]3CC4(CCN3Cc3ccc(C(F)(F)F)cc3)CC4)CC2)cc1.[Na+] [CR6086, Sodium (R)-4-(1-(6-(4-(trifluoromethyl)benzyl)-6-azaspiro[2.5]octane-5-carboxamido)cyclopropyl)benzoate]
[1]
  inhibition at 1 µM: 100%
[2]; 16 days, 30 mg/kg CR6086, 3 mg/kg MTX, alone or combined
  effect on joint histopathology: significantly improved all histological features of arthritis
[2]; DAY 0
  CLINICAL SCORE (interquartile range): 2.0 (2.0 – 2.0) *
[2]; DAY 1
  CLINICAL SCORE (interquartile range): 2.0 (2.0 – 2.0)
[2]; DAY 2
  CLINICAL SCORE (interquartile range): 2.0 (1.0 – 2.0)
[2]; DAY 3
  CLINICAL SCORE (interquartile range): 2.0 (1.0 – 3.1)
[2]; DAY 4
  CLINICAL SCORE (interquartile range): 2.0 (1.0 – 2.3)
[2]; DAY 5
  CLINICAL SCORE (interquartile range): 2.0 (1.3 – 2.0)
[2]; DAY 6
  CLINICAL SCORE (interquartile range): 2.0 (2.0 – 3.0)
[2]; DAY 7
  CLINICAL SCORE (interquartile range): 2.0 (1.0 – 3.1)
[2]; DAY 8
  CLINICAL SCORE (interquartile range): 2.0 (0.5 – 3.5)
[2]; DAY 9
  CLINICAL SCORE (interquartile range): 2.0 (1.0 – 3.3)
[2]; DAY 10
  CLINICAL SCORE (interquartile range): 2.5 (2.0 – 4.3)
[2]; DAY 11
  CLINICAL SCORE (interquartile range): 4.0 (2.0 – 5.0)
[2]; DAY 12
  CLINICAL SCORE (interquartile range): 4.8 (2.8 – 5.1)
[2]; DAY 13
  CLINICAL SCORE (interquartile range): 4.5 (3.0 – 5.5)
[2]; DAY 14
  CLINICAL SCORE (interquartile range): 3.0 (3.0 – 4.9)
[2]; DAY 15
  CLINICAL SCORE (interquartile range): 4.5 (3.0 – 5.0)
[2]; DAY 16
  CLINICAL SCORE (interquartile range): 2.0 (1.0 – 3.5)
[3]
  inhibition at 10 µM: < 20%
[4]
  inhibition at 10 µM: < 20%
[5]
  inhibition at 10 µM: < 20%
[6]
  inhibition at 10 µM: < 20%
[7]
  inhibition at 10 µM: < 20%
[8]
  inhibition at 10 µM: < 20%
[9]
  inhibition at 10 µM: < 20%
[10]
  inhibition at 10 µM: < 20%
[11]
  inhibition at 10 µM: < 20%
[12]
  inhibition at 10 µM: < 20%
[13]
  inhibition at 10 µM: < 20%
[14]
  inhibition at 10 µM: < 20%
[15]
  inhibition at 10 µM: < 20%
[16]
  inhibition at 10 µM: < 20%
[17]
  inhibition at 10 µM: < 20%
[18]
  inhibition at 10 µM: < 20%
[19]
  CR6086 Activity at 10µM: IN up to 100µM (IN = < 20% displacement or inhibition (all tables))
[20]
  CR6086 Activity at 10µM: IN (IN = < 20% displacement or inhibition (all tables))
